According to patent publication US20140057915A1, “KINASE INHIBITORS” (TOPIVERT PHARMA LIMITED, priority 2012, published 2014):
pEC50, pIC50: −log10 of the molar value. Read-outs that look alike come from different tables or passages of the source.

Legend:
[1] = test system: IL-8 release, d-U937 cells; assay: LPS-induced IL-8 release in d-U937 cells; format: cell-based; conditions: Homo sapiens, dU937
Outline: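 IL-8 release after a 4 hr challenge with LPS (0.1 μg/mL, E. coli 0111:B4) following a 2 hr compound pretreatment. Cells were human U937 monocytes differentiated to macrophage-type with PMA 100 ng/mL for 48–72 hr. Relative 50% effective concentration derived from concentration–response data.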

d-U937 cells = assay: Cell viability: MTT assay; format: cell-based, human; conditions: 1 μg/mL
Outline: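 Differentiated U937 cells exposed to compound at 1 or 10 μg/mL, either 4 h in 5% FCS or 24 h in 10% FCS RPMI1640. MTT then added for 1 h, formazan dissolved in DMSO and read at 550 nm. Viability loss given as % versus 0.5% DMSO vehicle; apparent gains appear negative.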

GSK3α = GSK3α (Homo sapiens, UniProt P49840); assay: GSK 3α enzyme inhibition (FRET), Method 1; format: biochemical; conditions: Table 4a1
Outline: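 Z-LYTE FRET format. Enzyme (500 ng/mL stock) + compound (stocks 4–0.004 μg/mL), 2 hr RT; add peptide (8 μM stock) + ATP (40 μM stock), 1 hr; protease 1 hr; read donor/acceptor emission ratio.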

cSrc = cSrc (Homo sapiens, UniProt P12931); assay: c-Src enzyme inhibition (FRET); format: biochemical
Outline: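 2 hr RT enzyme + cpd (added solns 4/0.4/0.04/0.004 μg/mL); + FRET peptide (8 μM soln) + ATP soln (c-Src 800 μM, Syk 60 μM), 1 hr; protease development 1 hr; read donor/acceptor emission ratio.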

[2] = test system: TNFα release, d-U937 cells; assay: LPS-induced TNFα release in d-U937 cells; format: cell-based; conditions: Homo sapiens, dU937; for pIC50: Table 4c2, different laboratory, read-out: IC50 Values for Inhibition of Cytokine Release, dU937 cells, TNFα; for pEC50: relative to 10 μg/mL BIRB796, Table 4c1, read-out: LPS Induced Release of Cytokine in d-U937 Cells, TNFα REC50
Outline: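 U937 cells differentiated with PMA (100 ng/mL, 48–72 hr), pre-treated with compound for 2 hr, then stimulated with E. coli LPS (0.1 μg/mL) for 4 hr. Supernatant cytokine measured by sandwich ELISA; inhibition versus vehicle control, REC50 from concentration-response curve.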

PBMC cells = assay: Cell mitosis assay; format: cell-based; conditions: Homo sapiens, read-out: % Inhibition of mitosis in PBMC cells at 5 μg/mL
Outline: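 Healthy-donor PBMCs (3 million cells per sample) stimulated with 2% PHA for 48 hr, then exposed 20 hr to varying compound concentrations. Demecolcine (0.1 μg/mL) added 2 hr before collection to arrest cells in metaphase; read by flow cytometry gated on lymphocytes.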

HRV16 in MRC5 cells = assay: HRV16 induced CPE in MRC5 cells; format: cell-based; conditions: Human rhinovirus sp., HRV-16
Procedure: (j) Assessment of HRV16 Induced CPE in MRC5 Cells
MRC-5 cells are infected with HRV16 at an MOI of 1n DMEM containing 5% FCS and 1.5 mM magnesium chloride, followed by incubation for 1 hr at 33° C. to promote adsorption. The supernatants are aspirated, and then fresh media added followed by incubation for 4 days. Where appropriate, cells are pre-incubated with compound or DMSO for 2 hr, and the compounds and DMSO added again after washout of the virus.
After washing, 1% SDS in distilled water (100 μL) is added to each well, and the plates are shaken lightly for 1-2 hr prior to reading the absorbance at 660 nm. The percentage inhibition for each well is calculated. The IC50 value is calculated from the concentration-response curve generated by the serial dilutions of the test compounds.

[3] = Table 4c1, read-out: LPS Induced Release of Cytokine in d-U937 Cells, IL-8 IC50
[4] = Table 4c2, different laboratory, read-out: IC50 Values for Inhibition of Cytokine Release, dU937 cells, IL-8
[5] = Table 4a2, different laboratory

Sequence of cSrc (P12931 whole entry): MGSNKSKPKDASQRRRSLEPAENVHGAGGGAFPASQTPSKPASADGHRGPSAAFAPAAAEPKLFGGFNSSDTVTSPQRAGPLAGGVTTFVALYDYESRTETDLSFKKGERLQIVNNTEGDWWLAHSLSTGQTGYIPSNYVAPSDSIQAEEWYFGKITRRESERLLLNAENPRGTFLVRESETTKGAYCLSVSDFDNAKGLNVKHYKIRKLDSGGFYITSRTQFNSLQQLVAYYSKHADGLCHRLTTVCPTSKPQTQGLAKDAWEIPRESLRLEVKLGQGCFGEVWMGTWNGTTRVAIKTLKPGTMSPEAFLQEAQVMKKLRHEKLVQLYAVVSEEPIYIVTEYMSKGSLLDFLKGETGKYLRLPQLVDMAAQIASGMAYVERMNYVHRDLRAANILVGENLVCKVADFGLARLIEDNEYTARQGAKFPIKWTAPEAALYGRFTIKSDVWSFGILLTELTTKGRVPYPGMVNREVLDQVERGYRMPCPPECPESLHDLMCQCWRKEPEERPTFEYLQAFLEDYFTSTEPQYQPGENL
Sequence of GSK3α (P49840 whole entry): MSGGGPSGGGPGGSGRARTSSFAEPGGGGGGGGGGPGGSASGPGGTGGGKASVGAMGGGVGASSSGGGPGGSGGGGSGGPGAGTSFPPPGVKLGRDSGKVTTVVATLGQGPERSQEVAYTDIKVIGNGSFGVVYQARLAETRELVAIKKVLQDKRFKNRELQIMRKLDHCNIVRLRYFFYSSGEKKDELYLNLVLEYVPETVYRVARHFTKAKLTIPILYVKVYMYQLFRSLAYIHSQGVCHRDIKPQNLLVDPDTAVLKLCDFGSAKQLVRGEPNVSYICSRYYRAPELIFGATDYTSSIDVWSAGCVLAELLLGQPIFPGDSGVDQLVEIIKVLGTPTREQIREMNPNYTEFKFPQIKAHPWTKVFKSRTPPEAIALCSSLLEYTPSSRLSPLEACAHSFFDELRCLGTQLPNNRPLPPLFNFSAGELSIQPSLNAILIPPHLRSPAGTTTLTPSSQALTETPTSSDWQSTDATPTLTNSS

SMILES	pIC50 [1, 3]	pIC50 [1, 4]	pIC50 (GSK3α)	pIC50 (cSrc; Table 4a1)	pIC50 (cSrc; [5])	pIC50 [2]	pEC50 [2]	Cell viability at time point in d-U937 cells, 4 h (d-U937 cells)	Cell viability at time point in d-U937 cells, 24 h (d-U937 cells)	inhibition at 5 µg/mL (PBMC cells)	pIC50 (HRV16 in MRC5 cells)
Cc1ccc(-n2nc(C(C)C)cc2NC(=O)Nc2ccc(Oc3ccnc(Nc4cc(C(=O)NCCN5CCOCC5)cc(C(F)(F)F)c4)n3)c3ccccc23)cc1 [Example 7, 3-((4-((4-(3-(3-isopropyl-1-(p-tolyl)-1H-pyrazol-5-yl)ureido)naphthalen-1-yl)oxy)pyrimidin-2-yl)amino)-N-(2-morpholinoethyl)-5-(trifluoromethyl)benzamide]	8.82	–	< 4.90	7.89	7.57	8.57	9.70	−ve (−ve and +ve indicate that the value is below and above respectively, the no significant effect threshold, defined as 30% inhibition at 1 μg/mL at the time point indicated)	−ve (−ve and +ve indicate that the value is below and above respectively, the no significant effect threshold, defined as 30% inhibition at 1 μg/mL at the time point indicated)	20.6%	–
COc1cc(Nc2nccc(Oc3ccc(NC(=O)Nc4cc(C(C)C)nn4-c4ccc(C)cc4)c4ccccc34)n2)cc(C(=O)NCCN2CCOCC2)c1 [Example 8, 3-((4-((4-(3-(3-Isopropyl-1-(p-tolyl)-1H-pyrazol-5-yl)ureido)naphthalen-1-yl)oxy)pyrimidin-2-yl)amino)-5-methoxy-N-(2-morpholinoethyl)benzamide]	9.52	8.85	5.10	> 9.00	7.39	8.96	9.10	−ve (−ve and +ve indicate that the value is below and above respectively, the no significant effect threshold, defined as 30% inhibition at 1 μg/mL at the time point indicated)	−ve (−ve and +ve indicate that the value is below and above respectively, the no significant effect threshold, defined as 30% inhibition at 1 μg/mL at the time point indicated)	15.3%	8.27
COc1cc(Nc2nccc(Oc3ccc(NC(=O)Nc4cc(C5CC5)nn4-c4ccc(C)cc4)c4ccccc34)n2)cc(C(=O)NCCN2CCOCC2)c1 [Example 50, 3-((4-((4-(3-(3-cyclopropyl-1-(p-tolyl)-1H-pyrazol-5-yl)ureido)naphthalen-1-yl)oxy)pyrimidin-2-yl)amino)-5-methoxy-N-(2-morpholinoethyl)benzamide]	8.10	–	< 4.88	> 9.00	–	–	8.28	−ve (−ve and +ve indicate that the value is below and above respectively, the no significant effect threshold, defined as 30% inhibition at 1 μg/mL at the time point indicated)	−ve (−ve and +ve indicate that the value is below and above respectively, the no significant effect threshold, defined as 30% inhibition at 1 μg/mL at the time point indicated)	–	8.17
C#Cc1cc(Nc2nccc(Oc3ccc(NC(=O)Nc4cc(C(C)(C)C)nn4-c4ccc(OC)cc4)c4ccccc34)n2)cc(C(=O)NCCN2CCOCC2)c1 [Example 77, 3-((4-((4-(3-(3-(tert-Butyl)-1-(4-methoxyphenyl)-1H-pyrazol-5-yl)ureido)-naphthalen-1-yl)oxy)pyrimidin-2-yl)amino)-5-ethynyl-N-(2-morpholinoethyl)benzamide]	–	9.05	–	–	7.92	9.40	–	–	–	-0.3%	–

Further compounds by rising pIC50 (cSrc; [5]), results first:

pIC50 [1, 3]	pIC50 [1, 4]	pIC50 (GSK3α)	pIC50 (cSrc; Table 4a1)	pIC50 (cSrc; [5])	pIC50 [2]	pEC50 [2]	SMILES	Cell viability at time point in d-U937 cells, 4 h (d-U937 cells)	Cell viability at time point in d-U937 cells, 24 h (d-U937 cells)	inhibition at 5 µg/mL (PBMC cells)	pIC50 (HRV16 in MRC5 cells)
8.74	8.55	5.54	8.30	7.57	8.68	9.15	COc1cc(Nc2cc(Oc3ccc(NC(=O)Nc4cc(C(C)(C)C)nn4-c4ccc(C)cc4)c4ccccc34)ccn2)cc(C(=O)NCCN2CCOCC2)c1 [Example 1, 3-((4-((4-(3-(3-(tert-Butyl)-1-(p-tolyl)-1H-pyrazol-5-yl)ureido)naphthalen-1-yl)oxy)pyridin-2-yl)amino)-5-methoxy-N-(2-morpholinoethyl)benzamide]	−ve (−ve and +ve indicate that the value is below and above respectively, the no significant effect threshold, defined as 30% inhibition at 1 μg/mL at the time point indicated)	−ve (−ve and +ve indicate that the value is below and above respectively, the no significant effect threshold, defined as 30% inhibition at 1 μg/mL at the time point indicated)	39.3%	8.54
8.85	–	5.10	8.70	7.68	–	9.05	COc1cc(Nc2nccc(Oc3ccc(NC(=O)Nc4cc(C(F)(F)C(F)(F)F)nn4-c4ccc(C)cc4)c4ccccc34)n2)cc(C(=O)NCCN2CCOCC2)c1 [Example 9]	−ve (−ve and +ve indicate that the value is below and above respectively, the no significant effect threshold, defined as 30% inhibition at 1 μg/mL at the time point indicated)	−ve (−ve and +ve indicate that the value is below and above respectively, the no significant effect threshold, defined as 30% inhibition at 1 μg/mL at the time point indicated)	20.7%	8.77
–	9.30	–	–	7.72	9.52	–	C#Cc1cc(Nc2nccc(Oc3ccc(NC(=O)Nc4cc(C(C)(C)C)nn4-c4ccc(N(C)C)cc4)c4ccccc34)n2)cc(C(=O)NCCN2CCOCC2)c1 [Example 80, 3-((4-((4-(3-(3-(tert-Butyl)-1-(4-(dimethylamino)phenyl)-1H-pyrazol-5-yl)ureido)naphthalen-1-yl)oxy)pyrimidin-2-yl)amino)-5-ethynyl-N-(2-morpholinoethyl)-benzamide]	–	–	10.4%	–
8.89	–	< 4.85	8.10	7.82	9.52	9.70	COCCNC(=O)c1cc(Nc2nccc(Oc3ccc(NC(=O)Nc4cc(C(C)C)nn4-c4ccc(OC)cc4)c4ccccc34)n2)cc(OC)c1 [Example 11, 3-((4-((4-(3-(3-Isopropyl-1-(4-methoxyphenyl)-1H-pyrazol-5-yl)ureido)naphthalen-1-yl)oxy)pyrimidin-2-yl)amino)-5-methoxy-N-(2-methoxyethyl)benzamide]	−ve (−ve and +ve indicate that the value is below and above respectively, the no significant effect threshold, defined as 30% inhibition at 1 μg/mL at the time point indicated)	−ve (−ve and +ve indicate that the value is below and above respectively, the no significant effect threshold, defined as 30% inhibition at 1 μg/mL at the time point indicated)	50.7%	–
–	8.62	–	–	7.85	8.96	–	C#Cc1cc(Nc2nccc(Oc3ccc(NC(=O)Nc4cc(C(C)C)nn4-c4ccc(C)cc4)c4ccccc34)n2)cc(C(=O)NCCN2CCOCC2)c1 [Example 46, 3-ethynyl-5-((4-((4-(3-(3-isopropyl-1-(p-tolyl)-1H-pyrazol-5-yl)ureido)naphthalen-1-yl)oxy)pyrimidin-2-yl)amino)-N-(2-morpholinoethyl)benzamide]	−ve (−ve and +ve indicate that the value is below and above respectively, the no significant effect threshold, defined as 30% inhibition at 1 μg/mL at the time point indicated)	−ve (−ve and +ve indicate that the value is below and above respectively, the no significant effect threshold, defined as 30% inhibition at 1 μg/mL at the time point indicated)	-6.7%	–
